Measured values from paper PMC6105642, “A platform for discovery of functional cell-penetrating peptides for efficient multi-cargo intracellular delivery” (Scientific Reports, 2018).
pIC50: −log10 of the molar value. Square brackets hold non-standard residues; d marks the D form. Peptide text beside a SMILES is read from it.

Experiments:
[1] = system: T47D cells; test: ^DPMIα delivery cell viability assay; assay type: cell-based, human; settings: 48 h incubation; presence of sera; resazurin reduction potential
Protocol: A variety of cell types and cargos confirmed the potency and versatility of Phylomer CPP delivery. Different functional assays applied readouts designed to directly quantify delivery of an established biologic cargo. […] CPP_^DPMIα synthetic peptides (Supplementary Table 7 and Fig. 3a, cargo 2) reduced viability of human breast tumor cells (T47D) in the presence of sera, indicating the successful delivery of ^DPMIα into the cells (Fig. 5a).
All cell viability studies were performed in the presence of FCS. Cells were seeded at 2.5–5 × 10^3 cells/well, depending on cell line, in 96-well plates (PAP assays: CHO-K1 at 3 × 10^3 cells/well; peptide cytotoxicity assays: CHO-K1 at 5 × 10^3 cells/well; Bouganin assay: CHO-K1 and CHO-K1/EGFR at 2.5 × 10^3 cells/well; ^DPMIα assays: T47D at 5 × 10^3 cells/well; Omomyc assays: all cell lines at 5 × 10^3 cells/well). In brief, adherent cells were allowed to adhere for 24 h prior to the addition of treatments whereas suspension cell lines were treated immediately following seeding. […] Membrane integrity was assessed by the release of LDH into the media via the CytoTox-ONE reagent (Promega). Metabolic activity was measured either by resazurin reduction potential using PrestoBlue (Life Technologies) or by ATP activity using CellTitre-Glo (Promega). […] IC50 values were calculated using Prism (version 7.0a, GraphPad).

[2] = system: T47D (breast cancer); test: Omomyc cell viability assay (ATP activity); assay type: cell-based, human; settings: 48 h
From the text: (§1) Next 1746c27 was used to deliver the Omomyc[45],[46] protein cargo. This well-characterized dominant-negative protein directly binds and inhibits the transcription factor MYC. A master regulator of critical cellular processes, MYC is an intracellular oncoprotein target deemed “undruggable” using conventional biological therapeutics. Treatment with recombinant 1746c27_Omomyc (Fig. 3a, cargo 4) induced a dose-dependent decrease in cell viability in MYC-dependent blood cancer cell lines and T47D cells in the presence of sera. […] The potency of 1746c27_Omomyc was greater than small molecule inhibitors of MYC, 10058-F4 and KJ-Pyr9 (Supplementary Fig. 8).
(§2) All cell viability studies were performed in the presence of FCS. […] Membrane integrity was assessed by the release of LDH into the media via the CytoTox-ONE reagent (Promega). Metabolic activity was measured either by resazurin reduction potential using PrestoBlue (Life Technologies) or by ATP activity using CellTitre-Glo (Promega). […] IC50 values were calculated using Prism (version 7.0a, GraphPad).

[3] = system: AMO-1 (plasmacytoma); test: Omomyc cell viability assay (ATP activity); assay type: cell-based; settings: 48 h
From the text: as §1, §2

[4] = system: HL-60 (promyelocytic leukemia); test: Omomyc cell viability assay (ATP activity); assay type: cell-based; settings: 48 h
From the text: as §1, §2

[5] = system: CHO-K1 cells; test: Peptide cytotoxicity, cell viability by resazurin reduction; assay type: cell-based; settings: CPP alone up to 50 µM, 24 h and 48 h, presence of sera
Protocol: To ensure that 1746 and 1746c27 are not innately cytotoxic, we assessed their effect on cell viability. CHO-K1 cells were treated with CPPs in the presence of sera at 24 h (Fig. 4a) and 48 h (Fig. 4b). The effects of CPPs on cellular membrane stability were assessed using a LDH enzymatic assay, measuring LDH release at 2 h (Fig. 4c) and 24 h (Fig. 4d) after peptide addition.
All cell viability studies were performed in the presence of FCS. Cells were seeded at 2.5–5 × 10^3 cells/well, depending on cell line, in 96-well plates (PAP assays: CHO-K1 at 3 × 10^3 cells/well; peptide cytotoxicity assays: CHO-K1 at 5 × 10^3 cells/well; Bouganin assay: CHO-K1 and CHO-K1/EGFR at 2.5 × 10^3 cells/well; ^DPMIα assays: T47D at 5 × 10^3 cells/well; Omomyc assays: all cell lines at 5 × 10^3 cells/well). In brief, adherent cells were allowed to adhere for 24 h prior to the addition of treatments whereas suspension cell lines were treated immediately following seeding. Following 2–48 h incubations with treatments, cell viability was measure by a variety of methods. Membrane integrity was assessed by the release of LDH into the media via the CytoTox-ONE reagent (Promega). Metabolic activity was measured either by resazurin reduction potential using PrestoBlue (Life Technologies) or by ATP activity using CellTitre-Glo (Promega). […] IC50 values were calculated using Prism (version 7.0a, GraphPad).

[6] = system: C57BL/6J mice; test: Serum parameters of kidney and liver toxicity in mice; assay type: in vivo, mouse; settings: 40 mg/kg/day IP for 7 days, n = 6
Protocol: To examine 1746c27 toxicity in vivo, a cohort of adult male C57BL/6J mice (n = 6) were treated with the CPP. Following approved standard preliminary toxicity testing guidelines (Food and Drug Administration, FDA, and European Medicines Agency, EMA), mice were injected intraperitoneally daily for 7 days with 40 mg/kg of 1746c27. After a further 8 days the mice were culled (on day 15) and serum was extracted and used to examine kidney and liver toxicity. Urea, creatinine, aspartate transaminase (AST) and alanine transaminase (ALT) concentrations were measured. […] ALT (p = 0.054) and creatinine (p = 0.01) levels were lower compared to untreated control mice, which supports the finding of minimal toxicity.
All mouse studies were approved by the Animal Ethics Committee of The University of Western Australia in accordance with the Australian Code of Practice for the Care and Use of Animals for Scientific Purposes (NH&MRC, 8th Edition, 2013). Studies were performed using adult male C57BL/6J mice weighing approximately 20 g. Mice were treated with 1746c27 (40 mg/kg/day intraperitoneally) for 7 days (day 1–7), followed by no treatment on days 8–15. On day 15, mice were anesthetized with intraperitoneal injection of pentobarbitone sodium (240 mg/kg), and their terminal blood collected. Serum was extracted and used to measure kidney and liver toxicity. Urea and creatinine concentration was assessed using QuantiChrom Urea and Creatinine assay kits, respectively (BioAssay Systems). Aspartate transaminase (AST) and alanine transaminase (ALT) concentration were measured using EnzyChrom Aspartate Transaminase and Alanine Transaminase assay kits, respectively (BioAssay Systems). All assays were performed as per manufacturer’s instructions, using a spectrophotometer (PowerWave XS).

[7] = system: C57BL/10ScSn^mdx mice; test: Exon skipping in vivo by RT-PCR and Western blot; set-up: species or system mouse; settings: five IP injections over two weeks, 4 nmoles per dose; RT-PCR / immunoblot; diaphragm, tibialis anterior, heart
Protocol: Exon skipping in vivo was evaluated at the (a, c) RNA and (b) protein level in the Duchenne muscular dystrophy mouse disease model. RNA was extracted from tissues of C57BL/10ScSn^mdx mice treated with five intra-peritoneal injections of CPP_PMO cargo over two weeks at 4 nmoles per dose (injected volume increased with increased weight of the mice). Pip6, a traditional carrier CPP for peptide-oligonucleotide conjugates in the mdx disease model of DMD^9, was tested in vivo in parallel for comparison. All samples were loaded onto the gel using normalization by myosin densitometry, to enable a quantitative comparison.^10
Tissues were sectioned (6 µm thickness) before adding lysis buffer. Otherwise exon skipping assays and RT-PCR detection were performed following the same protocols used for detection of exon skipping in vitro in myoblasts cells (see Methods of main text).
Samples were vortexed for 10 sec, sonicated at a setting of 30/100 (Sonics sonicator) for 6 x 1 sec pulses, heated at 95 °C for 5 min and centrifuged at 14,000rpm on a Beckman microfuge for 4 min before loading. Total protein was quantitated by BCA assay (Pierce). Average total protein concentration was 2.3 µg/µl. […] Coomassie stained bands were analysed using Bio1D software and the results were used as a loading control to provide equal loading for the western gel that followed. […]

Ac-PLKPKKPKTQEKKKKQPPKPKKPKTQEKKKKQPPKPKRGAS[dT][dN][dW][dY][dA][dN][dL][dE][dK][dL][dL][dR]-NH2 [1746_^DPMIα]
pIC50 [1]: 5.04

Ac-KKKKQPPKPKKPKTQEKKKKQPPKPKR-NH2 (N-terminus and C-terminus assumed) [1746c27]
effect on cell viability, in words [2]: no notable effect on cell viability | effect on cell viability, in words [3]: no notable effect on cell viability | effect on cell viability, in words [4]: no notable effect on cell viability | cytotoxic activity, cell viability [5]: no measurable cytotoxicity | toxicity in vivo, in words [6]: minimal evidence of toxicity | ALT Mean ([6]; serum day 15): 59.73 U/L | AST Mean ([6]; serum day 15): 84.98 U/L | Creatinine Mean ([6]; serum day 15): 0.33 mg/dL | Urea Mean ([6]; serum day 15): 50.99 mg/dL | exon 23 skipping in tissues, in words [7]: not detected

CC(=O)NCC(=O)N[C@@H](CCCNC(=N)N)C(=O)N[C@@H](CCCCN)C(=O)N[C@@H](CCCCN)C(=O)N[C@@H](CCCNC(=N)N)C(=O)N[C@@H](CCCNC(=N)N)C(=O)N[C@@H](CCC(N)=O)C(=O)N[C@@H](CCCNC(=N)N)C(=O)N[C@@H](CCCNC(=N)N)C(=O)N[C@@H](CCCNC(=N)N)C(=O)NCC(=O)N[C@@H](C)C(=O)N[C@@H](CO)C(=O)N[C@@H](C(=O)N[C@H](CC(N)=O)C(=O)N[C@H](Cc1c[nH]c2ccccc12)C(=O)N[C@H](Cc1ccc(O)cc1)C(=O)N[C@H](C)C(=O)N[C@H](CC(N)=O)C(=O)N[C@H](CC(C)C)C(=O)N[C@H](CCC(=O)O)C(=O)N[C@H](CCCCN)C(=O)N[C@H](CC(C)C)C(=O)N[C@H](CC(C)C)C(=O)N[C@H](CCCNC(=N)N)C(N)=O)[C@H](C)O [TAT_^DPMIα, reference compound] (Ac-GRKKRRQRRRGAS[dT][dN][dW][dY][dA][dN][dL][dE][dK][dL][dL][dR]-NH2)
pIC50 [1]: 4.44
